Assay: Paste stability test (storage in glass containers, assay of active ingredients by HPLC)
Assay type: physicochemical
Conditions: paste composition of Example 2, glass containers
Description: The paste composition of Example 2 was stored in glass containers at different temperatures for up to 12 months and assay of both active ingredients followed by HPLC analysis at given time points (3-, 6- and 12-months).

- Content in % of start value (5° C., 3 month): 102.20%
- Content in % of start value (5° C., 6 month): 103.98%
- Content in % of start value (5° C., 12 month): 103.56%
- Content in % of start value (25° C., 3 month): 102.52%
- Content in % of start value (25° C., 6 month): 101.99%
- Content in % of start value (25° C., 12 month): 102.73%
- Content in % of start value (30° C., 3 month): 100.63%
- Content in % of start value (30° C., 6 month): 102.31%
- Content in % of start value (30° C., 12 month): 102.62%
- Content in % of start value (40° C., 3 month): 101.36%
- Content in % of start value (40° C., 6 month): 102.10%
- Content in % of start value (40° C., 12 month): 100.94%
SMILES: O=C(C1CCCCC1)N1CC(=O)N2CCc3ccccc3C2C1 (stereo not drawn) [Praziquantel, 2-(cyclohexylcarbonyl)-1,2,3,6,7,11b-hexahydro-4H-pyrazino[2,1-a]isoquinoline-4-one]

Source: US20100286154A1, “ANTIHELMINTIC PASTE” (priority 2007, published 2010)
